Measurements from patent US20220372171A1, “ANTIBODY DIRECTED AGAINST TENOFOVIR AND DERIVATIVES THEREOF” (priority 2019, published 2022).

Assays:
HIV [1] = details: daily doses; subjects at high risk through sexual transmission and drug use; cited from earlier work
HIV [2] = assay: Nested case-control analysis: TFV level and protection from HIV acquisition (Partners PrEP Study); type: in vivo
Experimental: (§1) It was hypothesized that TFV concentrations in urine, measured via an immunoassay, would correlate to those in plasma, the gold standard for short-term PrEP adherence in clinical trials, and associated with protection from HIV. To test this hypothesis, TFV levels were measured in stored urine samples collected from a randomly sampled cohort of HIV-negative men and women from the active PrEP arms in the Partners PrEP Study using enzyme-linked immunosorbent assay (ELISA) (lower limit of quantification [LLOQ] of 1000 ng/mL). Date-matched plasma TFV concentrations were measured using liquid chromatography-tandem mass spectrometry (LC-MS/MS) with an LLOQ of 0.31 ng/mL. Using the same cohort and a purposive sample of all HIV seroconverters on PrEP, a case-cohort analysis was conducted to assess the association between recent urine TFV level ≥1500 ng/mL, a threshold previously shown to accurately predict recent PrEP dosing, and protection from HIV. Weighted Cox proportional hazard models were used and adjusted for age, sex, and sexual behavior.
To assess the association between urine TFV concentrations ≥1,500 ng/mL and protection from HIV acquisition, a nested case-control analysis was conducted. Case samples collected on the date of the first evidence of HIV infection (i.e., first positive test for HIV-1 RNA) were matched with control samples collected at the same study visit month. […]

HIV [3] = assay: Urine TFV levels by immunoassay and HIV seroconversion (iPrEx-OLE); type: in vivo
Experimental: PrEP was provided to 1,085 men who have sex with men (MSM) and 140 transwomen (Grant et al., Lancet Infect Dis, 14: 820-829 (2014)). Urine was collected every 12 weeks and dried blood spots (DBS) were prepared 4 and 8 weeks after PrEP initiation, and then every 12 weeks. DBS assays for TFV-diphosphate (TFV-DP) and FTC-triphosphate (FTC-TP) were analyzed at all visits for participants who seroconverted in the iPrEx open-label extension (iPrEx-OLE) study and in a random subset of those who remained HIV-negative (Grant et al., supra). Hair samples for TFV and FTC were collected every 12 weeks for all who provided opt-in consent and analyzed among seroconverters and a random subset of those who remained HIV-negative (Gandhi et al., Lancet HIV, 3: e521-e528 (2016)). Participants who qualified for the correlation analysis required sample availability from all three biomatrices (urine, DBS, hair) at one or more visits over the duration of iPrEx-OLE (median 72 weeks). Additional urine samples from seroconverters (n=10) were included in the specific analysis looking at the association between urine TFV levels and seroconversion. All individuals in the study provided informed consent, including for sample storage and further testing, and the institutional review board from each study site approved the study.
The upper limit of quantification for the immunoassay was 50,000 ng/mL. Using previously described and validated LC-MS/MS-based methods, TFV-DP and FTC-TP concentration were measured in DBS (Zheng et al., J Pharm Biomed Anal, 122: 16-20 (2016)), and FTC and TFV concentrations were measured in hair (Liu et al., PLoS One, 9: e83736 (2014)).
For the seroconversion analysis, urine TFV concentrations via the immunoassay were compared using Kruskal-Wallis' test among individuals at the seroconversion visit; prior to the seroconversion visit; and those who remained HIV-negative. Receiver operating curves (ROC) were analyzed to identify two urine TFV cut-points and compared with the outcome of future HIV seroconversion. […] The sensitivity and specificity of the urine assay at an undetectable urine TFV level (<1,000 ng/mL) was compared with two levels of inadequate adherence defined by TFV-DP concentrations in DBS: the limit of quantification (<3.5 fmol/punch) and very low adherence (<350 fmol/punch, estimated average weekly adherence of <2 tablets/week) (Grant et al., Lancet Infect Dis, 14: 820-829 (2014)); and Anderson et al., Antimicrob Agents Chemother, 62: e01710-e01717 (2018)). The lower limit of detection for the urine assay (1,000 ng/mL) was selected as the optimal single cut-off based on analysis of ROC curves and prior data examining LC-MS/MS-based methods to quantify TFV levels in urine (Lalley-Chareczko et al., J Acquir Immune Defic Syndr, 79: 173-178 (2018)).

[4] = Plasma TFV concentration by LC-MS/MS, Partners PrEP Study cohort; type: in vivo, human; details: Partners PrEP cohort on TDF or TDF/FTC; IQR=1.6-103.0 ng/mL
Experimental: as §1

[5] = Urine TFV concentration by ELISA, Partners PrEP Study cohort; type: in vivo, human; details: Partners PrEP cohort on TDF or TDF/FTC; IQR=500-90,000 ng/mL
Experimental: as §1

C[C@H](Cn1cnc2c(N)ncnc21)OCP(=O)(O)O [TFV, tenofovir]
reduced incidence of HIV (HIV [1]): 48.9%
reduction in HIV risk associated with plasma TFV >40 ng/mL (HIV [2]; plasma TFV >40 ng/mL by LC-MS/MS, 95% CI=54-96%): 87%
% HIV risk reduction (95% CI) (HIV [2]; urine TFV ≥1500 ng/mL by immunoassay, unadjusted, TDF/FTC or TDF-only PrEP): 73% (36 to 89%)
urinary TFV level at seroconversion (HIV [3]; at seroconversion (n=9), P<0.001, undetectable = <1,000 ng/mL): undetectable
association of decreasing strata of urine TFV levels with HIV seroconversion (HIV [3]; samples prior to seroconversion visit, P=0.03): associated with future HIV seroconversion
median urinary TFV level (HIV [3]; those who eventually seroconverted (n=11), interquartile range 1,000-12,500): 5,500 ng/mL
median urinary TFV level (HIV [3]; those who remained HIV negative (n=105), interquartile range 1,000-45,000): 15,000 ng/mL
median TFV concentration in plasma via LC-MS/MS [4]: 65.4 ng/mL
median TFV concentration in urine via ELISA [5]: 37,500 ng/mL
